Reference: paper PMC7918538 (Pharmaceuticals, 2021)
In brackets after ≈: the same amount, converted by molar mass. Several values for one entry are separate records, joined by “and”; a condition that tells them apart may be missing. Equal values may be shown once. Read-outs that look alike come from different tables or passages of the source.

Experiments:
[1] = target: T1, Recombinant M. tuberculosis MbtI (Mycobacterium tuberculosis, UniProt P9WFX1); assay: MbtI enzymatic inhibition assay (fluorimetric, salicylic acid formation); format: biochemical; conditions: for activity against MbtI (in words): discussion of Table 1
T1 construct: made in house
Experimental: Recombinant M. tuberculosis MbtI was produced and purified as previously reported. Enzyme activity was determined at 37 °C, measuring the formation of salicylic acid by a fluorimetric assay, slightly modified from Vasan et al.. Briefly, the reactions were performed in a final volume of 400 μL of 50 mM Hepes pH 7.5, 5 mM MgCl2, containing 1-2 μM MbtI, by the addition of chorismic acid, and monitored using a Perkin-Elmer LS3 fluorimeter (Ex. λ = 305 nm, Em. λ = 420 nm). Inhibition assays were performed in the presence of the compound at 100 µM (stock solution 20 mM in DMSO) and 50 µM chorismic acid. Where possible, compounds were tested both as free acids and sodium salts, providing analogous results. […] To this end, the activity was measured at different compound concentrations, and values were calculated according to Equation (1), with Origin 8 software:(1) A[I] = A[0] × (1 −[I]/[I] + IC50) where A[I] is the activity at inhibitor concentration [I] and A[0] is the activity in the absence of the inhibitor.
The Ki was determined at different substrate [S] and compound concentrations, using Equation (2):(2) v = Vmax[S]/[S] + Km (1 + [I]/Ki)

[2] = target: T1, Recombinant M. tuberculosis MbtI; conditions: cited from earlier work; for %RA (% residual enzymatic activity at 100 µM): previous furan leads I and II shown in Table 1 for comparison
eukaryotic cells = tested on: eukaryotic cells; design: method as in PMID 32530281, PMID 30889995, PMID 29940465, PMID 29933627; conditions: previous leads; cited from earlier work
M. bovis BCG [3] = assay: microbe, parasite or virus in culture; format: cell-based
M. bovis BCG [4] = conditions: previous lead I given for comparison; cited from earlier work
[5] = Series A R = m-CNPh, compound 100 µM, 50 µM chorismic acid, read-out: %RA (% residual enzymatic activity at 100 µM)
[6] = Series A R = m-CNPh, only for compounds with %RA ≤ 25%, read-out: IC50
[7] = compound 100 µM, rounded value, read-out: % residual enzymatic activity (%RA) at 100 µM
[8] = Series B R = p-NO2Ph, compound 100 µM, 50 µM chorismic acid, read-out: %RA (% residual enzymatic activity at 100 µM)
[9] = Series B R = p-NO2Ph, only for compounds with %RA ≤ 25%, read-out: IC50
[10] = Table 2, furans IV–IX, compound 100 µM, 50 µM chorismic acid, read-out: % RA (% residual enzymatic activity at 100 µM)
[11] = Table 2, furans IV–IX, only for compounds with %RA ≤ 25%, read-out: IC50
[12] = rounded value, read-out: IC50 against MbtI

T1 sequence (P9WFX1 whole entry): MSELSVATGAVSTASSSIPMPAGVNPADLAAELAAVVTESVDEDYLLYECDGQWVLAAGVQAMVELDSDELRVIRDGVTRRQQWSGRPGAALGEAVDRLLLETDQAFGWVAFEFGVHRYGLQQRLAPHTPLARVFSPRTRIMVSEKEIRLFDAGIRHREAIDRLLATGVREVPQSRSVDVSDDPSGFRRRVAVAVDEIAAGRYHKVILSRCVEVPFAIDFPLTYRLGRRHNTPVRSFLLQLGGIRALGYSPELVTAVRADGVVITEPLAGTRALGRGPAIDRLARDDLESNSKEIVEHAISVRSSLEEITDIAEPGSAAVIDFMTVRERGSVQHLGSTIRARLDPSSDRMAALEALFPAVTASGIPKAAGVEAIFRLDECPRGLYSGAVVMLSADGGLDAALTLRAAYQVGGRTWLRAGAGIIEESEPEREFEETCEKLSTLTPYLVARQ

In the case of `N#Cc1cccc(-c2ccc(C(=O)O)s2)c1` [1a, 5-(3-Cyanophenyl)thiophene-2-carboxylic acid], the remaining activity at 100 µM [1, 5] is reported as 23.7 ± 5%, the IC50 [1, 6] is reported as 35.5 ± 1.9 µM and the remaining activity at 100 µM [1, 7] is reported as roughly 23%. For the same molecule, the melting point was 207 °C.
In the case of `O=C(O)c1ccc(-c2ccc([N+](=O)[O-])cc2)s1` [1b, 5-(4-Nitrophenyl)thiophene-2-carboxylic acid], the remaining activity at 100 µM [1, 8] is reported as 22.5 ± 10.8%, the IC50 [1, 9] is reported as 18.6 ± 1.7 µM and the remaining activity at 100 µM [1, 7] is reported as roughly 23%. For the same molecule, the melting point was 189 °C.
For `N#Cc1cccc(-c2cnc(C(=O)[O-])s2)c1.[Na+]` [2a, Sodium 5-(3-cyanophenyl)thiazole-2-carboxylate], the remaining activity at 100 µM [1, 5] was 24.8 ± 1.8%, the IC50 [1, 6] was 41.9 ± 7.3 µM and the “activity against MbtI (in words)” value [1] was “weaker inhibitors”. The melting point was > 300 °C (dec.).
In the case of `O=C([O-])c1ncc(-c2ccc([N+](=O)[O-])cc2)s1.[Na+]` [2b, Sodium 5-(4-nitrophenyl)thiazole-2-carboxylate], the remaining activity at 100 µM [1, 8] is reported as 32.8 ± 2.3%, the “activity against MbtI (in words)” value [1] is reported as “weaker inhibitors” and the melting point is reported as > 300 °C (dec.).
In the case of `N#Cc1cccc(-c2cnc(C(=O)[O-])o2)c1.[Na+]` [3a, Sodium 5-(3-cyanophenyl)oxazole-2-carboxylate], the remaining activity at 100 µM [1, 5] is reported as 38 ± 7.6%, the “activity against MbtI (in words)” value [1] is reported as “negligible activity” and the melting point is reported as > 300 °C (dec.).
For `O=C([O-])c1ncc(-c2ccc([N+](=O)[O-])cc2)o1.[Na+]` [3b, Sodium 5-(4-nitrophenyl)oxazole-2-carboxylate], the remaining activity at 100 µM [1, 8] was 23 ± 7.8%, the IC50 [1, 9] was 21.1 ± 2.7 µM and the “activity against MbtI (in words)” value [1] was “modest activity”. For the same molecule, the melting point was > 300 °C (dec.).
For `N#Cc1cccc(-c2cnc(C(=O)O)[nH]2)c1` [4a, 5-(3-Cyanophenyl)-1H-imidazole-2-carboxylic acid], the remaining activity at 100 µM [1, 5] was 21.2 ± 1%, the IC50 [1, 6] was 39.3 ± 3 µM and the “activity against MbtI (in words)” value [1] was “weak activity”. It also gave a melting point of 165 °C.
With `O=C(O)c1ncc(-c2ccc([N+](=O)[O-])cc2)[nH]1` [4b, 5-(4-Nitrophenyl)-1H-imidazole-2-carboxylic acid] the remaining activity at 100 µM [1, 8] was 18.2 ± 4.9%, the IC50 [1, 9] was 27.5 ± 2.3 µM and the “activity against MbtI (in words)” value [1] was “weak activity”. The melting point was 137 °C.
For `N#Cc1cc(C(F)(F)F)ccc1-c1ccc(C(=O)O)o1` [5-(2-cyano-4-(trifluoromethyl)phenyl)furan-2-carboxylic acid], the IC50 ([2]; previously published disubstituted furans, read-out: IC50 against MbtI) is listed as roughly 18 µM.
In the case of `N#Cc1cccc(-c2nnc(C(=O)O)o2)c1` [5a, 5-(3-Cyanophenyl)-1,3,4-oxadiazole-2-carboxylic acid], the remaining activity at 100 µM [1, 5] is reported as 75 ± 9.8% and the melting point is reported as 222 °C (dec.).
In the case of `O=C(O)c1nnc(-c2ccc([N+](=O)[O-])cc2)o1` [5b, 5-(4-Nitrophenyl)-1,3,4-oxadiazole-2-carboxylic acid], the remaining activity at 100 µM [1, 8] is reported as 59 ± 4.3% and the melting point is reported as 220 °C (dec.).
`N#Cc1cccc(-n2cc(C(=O)O)nn2)c1` [6a, 1-(3-Cyanophenyl)-1H-1,2,3-triazole-4-carboxylic acid] showed a remaining activity at 100 µM [1, 5] of 67.9 ± 6.6%.
Molecule `O=C(O)c1cn(-c2ccc([N+](=O)[O-])cc2)nn1` [6b, 1-(4-Nitrophenyl)-1H-1,2,3-triazole-4-carboxylic acid] has a remaining activity at 100 µM [1, 8] of 32.7 ± 7.8% and a melting point of 175 °C.
For `O=C(O)c1ccc(-c2ccccc2)o1` [III], the “MbtI activity (in words)” value ([2]; removal of the substituent from the phenyl ring) is listed as “complete loss of activity”.
In the case of `O=C(O)c1ccc(-c2ccc([N+](=O)[O-])cc2)o1` [II], the “%RA (% residual enzymatic activity at 100 µM)” value [2] is given as 18.2 ± 5.1% and the “cytotoxicity towards eukaryotic cells (in words)” value (eukaryotic cells) is given as “negligible cytotoxicity”.
With `N#Cc1cc(-c2ccc(C(=O)O)o2)cc(C(F)(F)F)c1` [IV, 5-(3-Cyano-5-(trifluoromethyl)phenyl)furan-2-carboxylic acid] the remaining activity at 100 µM [1, 10] was 0.7 ± 2.7%, the IC50 [1, 11] was 15.5 ± 3.1 µM and the Ki ([1]; kinetic analysis at different chorismic acid and compound concentrations) was 9.2 µM and ~9 µM. The remaining activity at 100 µM ([1]; read-out: % residual enzymatic activity (%RA) at 100 µM) was roughly 1%, the IC50 [1, 12] was roughly 15 µM and the “nature of inhibition against MbtI” value ([1]; steady-state kinetics towards chorismic acid) was “competitive inhibitor”. For the same molecule, the MIC99 (M. bovis BCG [3]; M. bovis BCG, iron-limiting conditions (chelated Sauton's medium), REMA) was 125 µM (≈ 35.1 µg/mL) and the MIC99 (M. bovis BCG [3]; Mycobacterium tuberculosis variant bovis BCG, BCG) was 125 µM (≈ 35.1 µg/mL).
`N#Cc1cc(O)cc(-c2ccc(C(=O)O)o2)c1` [IX, 5-(3-cyano-5-hydroxyphenyl)furan-2-carboxylic acid] showed a remaining activity at 100 µM [1, 10] of 15.3 ± 2.6%, an IC50 [1, 11] of 33.5 ± 3.4 µM and an IC50 [1, 12] of roughly 33 µM.
In the case of `N#Cc1cccc(-c2ccc(C(=O)O)o2)c1` [I], the “%RA (% residual enzymatic activity at 100 µM)” value [2] is listed as 3.1 ± 1.0%, the MIC99 (M. bovis BCG [4]) is listed as 250 µM (≈ 53.3 µg/mL) and the “cytotoxicity towards eukaryotic cells (in words)” value (eukaryotic cells) is listed as “negligible cytotoxicity”.
`O=C(O)c1ccc(-c2cc(C(F)(F)F)cc(C(F)(F)F)c2)o1` [V, 5-(3,5-Bis(trifluoromethyl)phenyl)furan-2-carboxylic acid] gave a remaining activity at 100 µM [1, 10] of 8.9 ± 1.6%, an IC50 [1, 11] of 18.8 ± 6.8 µM and an IC50 [1, 12] of roughly 19 µM.
In the case of `N#Cc1cc(F)cc(-c2ccc(C(=O)O)o2)c1` [VI, 5-(3-cyano-5-fluorophenyl)furan-2-carboxylic acid], the remaining activity at 100 µM [1, 10] is reported as 8.7 ± 1.4% and the IC50 [1, 11] is reported as 17.3 ± 3.1 µM.
In the case of `COc1cc(C#N)cc(-c2ccc(C(=O)O)o2)c1` [VII, 5-(3-Cyano-5-methoxyphenyl)furan-2-carboxylic acid], the remaining activity at 100 µM [1, 10] is reported as 10.5 ± 3.9%, the IC50 [1, 11] is reported as 14.5 ± 2.1 µM and the “activity against MbtI (in words)” value [1] is reported as “comparable IC50 with respect to IV”.
Molecule `Cc1cc(C#N)cc(-c2ccc(C(=O)O)o2)c1` [VIII, 5-(3-cyano-5-methylphenyl)furan-2-carboxylic acid] has a remaining activity at 100 µM [1, 10] of 16.7 ± 3.8%, an IC50 [1, 11] of 29.1 ± 1.8 µM and an IC50 [1, 12] of roughly 29 µM.
